Experiment [1] addresses T1, Menin-MLL (Homo sapiens, UniProt O00255).
T1 construct: His-Menin (M1-L615 end); purchased BIORTUS BP9210
T1 sequence (O00255 1-615 isoform O00255-1): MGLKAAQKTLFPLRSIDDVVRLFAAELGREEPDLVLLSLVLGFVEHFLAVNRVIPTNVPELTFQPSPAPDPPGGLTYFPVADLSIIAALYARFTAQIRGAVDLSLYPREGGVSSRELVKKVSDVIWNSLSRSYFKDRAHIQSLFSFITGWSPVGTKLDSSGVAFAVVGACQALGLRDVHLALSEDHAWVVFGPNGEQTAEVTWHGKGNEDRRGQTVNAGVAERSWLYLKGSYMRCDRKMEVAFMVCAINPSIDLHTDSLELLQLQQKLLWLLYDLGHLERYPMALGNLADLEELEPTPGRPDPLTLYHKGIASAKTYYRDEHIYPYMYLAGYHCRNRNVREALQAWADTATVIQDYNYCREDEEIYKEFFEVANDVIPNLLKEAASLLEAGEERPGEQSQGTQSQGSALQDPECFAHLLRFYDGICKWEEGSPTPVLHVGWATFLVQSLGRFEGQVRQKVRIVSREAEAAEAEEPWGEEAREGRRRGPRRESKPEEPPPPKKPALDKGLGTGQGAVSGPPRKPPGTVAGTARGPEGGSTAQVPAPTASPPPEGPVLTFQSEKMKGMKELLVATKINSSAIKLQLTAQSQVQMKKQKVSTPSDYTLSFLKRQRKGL
Nature of the experiment: Inhibitory activity against Menin-MLL binding (fluorescence polarization). As to conditions: 150 nM His-Menin, 15 nM FITC-MLL, 25°C for 60 min. The gist of the method:
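His-Menin (M1-L615, 150 nM) preincubated with compound 15 min at 25 °C in HEPES pH 7.5, 50 mM NaCl, 1 mM DTT, 0.01% BSA, then 15 nM FITC-MLL4-43 peptide added for 60 min at 25 °C. Fluorescence polarization read; IC50 from 4-parameter logistic fit, duplicates.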

The test system of experiment [2] is KG-1a (wild-type MLL). Nature of the experiment: Inhibition of proliferation of human tumor cells (Alamar Blue, 7 days), KG-1a control cell line. In kind it is cell-based. As to conditions: 168 h, KG-1a cells (wild-type MLL, control cell line), method calls the value GI50. The gist of the method:
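Seven-day continuous compound exposure in duplicate wells, with 0.1% DMSO vehicle. Proliferation is quantified by Alamar Blue fluorescence and expressed as GI50, using Day 0 readings as the low reference.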

[3] abbreviates: fluorescence polarization, read-out: Menin-MLL IC50.

pIC50: −log10 of the molar value. Where two headings read alike, the source gives them in different places.

In the case of `Cc1nc(F)c2c(-c3ccc(F)cc3C(=O)N3CCOC[C@H]3C)cc(C3CN([C@H](CN4CCN(C)CC4)C(C)C)C3)cn12` [Example 368-2, (3R)-4-[5-fluoro-2-(1-fluoro-3-methyl-6-{1-[(2S)-3-methyl-1-(4-methylpiperazin-1-yl)butan-2-yl]azacyclobutan-3-yl}imidazo[1,5-a]pyridin-8-yl)benzoyl]-3-methylmorpholine], the negative-log IC50 (pIC50) is 8.37 in experiment [1] (setting [3]) and 4.89 in experiment [2]. As for `CCN(C(=O)c1cc(F)ccc1-c1cc(C2(F)CN(C(=O)C3NC4CCC3CC4)C2)cn2c(C)ncc12)C(C)C` [Example 75, N-ethyl-5-fluoro-2-(6-{3-fluoro-1-[(1R,3S,4S)-2-azabicyclo[2.2.2]octan-3-carbonyl]azacyclobutan-3-yl}-3-methylimidazo[1,5-a]pyridin-8-yl)-N-(isopropyl) benzamide], the pIC50 in experiment [1] (Menin-MLL IC50, fluorescence polarization) is 7.76; in experiment [2] it was 4.70.

With `CC(=O)N1CCN(CCC[C@H](C(C)C)N2CC(c3cc(-c4ccc(F)cc4C(=O)N4CCOC[C@H]4C)c4c(F)nc(C)n4c3)C2)CC1` [Example 265], the pIC50 is 7.89 in experiment [1] (setting [3]) and 4.70 in experiment [2]. For the molecule `CCN(C(=O)c1cc(F)ccc1-c1cc(C2CN([C@H](CCCN3CCN(CCO)CC3)C(C)C)C2)cn2c(C)ncc12)C(C)C` [Example 398, N-ethyl-5-fluoro-2-(6-{1-[(3R)-6-[4-(2-hydroxyethyl)piperazin-1-yl]-2-methylhexan-3-yl]azacyclobutan-3-yl}-3-methylimidazo[1,5-a]pyridin-8-yl)-N-(isopropyl)benzamide], the pIC50 in experiment [1] (setting [3]) is 8.72; in experiment [2] it was less than 4.70. Turning to `COCCN(C)CCCC(C(C)C)N1CC(c2cc(-c3ccc(F)cc3C(=O)N3CCOCC3C)c3cnn(C)c3c2)C1` (stereo not shown) [Example 185], the negative logarithm of the IC50 (pIC50) is 7.84 in experiment [1] (setting [3]) and 4.70 in experiment [2]. The like results for `COC1CCN(CCC[C@H](C(C)C)N2CC(c3cc(-c4ccc(F)cc4C(=O)N4CCOC[C@H]4C)c4c(F)nc(C)n4c3)C2)CC1` [Example 204, (3R)-4-[5-fluoro-2-(1-fluoro-6-{1-[(3R)-6-(4-methoxypiperidin-1-yl)-2-methylhexan-3-yl]azacyclobutan-3-yl}-3-methylimidazo[1,5-a]pyridin-8-yl)benzoyl]-3-methylmorpholine] were, in that order, 8.32 and 4.74.

As to `CO[C@@H]1CCCN(CCC[C@H](C(C)C)N2CC(c3cc(-c4ccc(F)cc4C(=O)N4CCOC[C@H]4C)c4c(F)nc(C)n4c3)C2)C1` [Example 305], the pIC50 in experiment [1] (setting [3]) was 8.10; in experiment [2], 4.70.

For the molecule `CO[C@@H]1CCN(CCC[C@H](C(C)C)N2CC(c3cc(-c4ccc(F)cc4C(=O)N4CCOC[C@H]4C)c4c(F)nc(C)n4c3)C2)C1` [Example 202], the pIC50 in experiment [1] (setting [3]) was 8.37; in experiment [2] it was 4.70.

In the case of `Cc1nc(F)c2c(-c3ccc(F)cc3C(=O)N3CCOC[C@H]3C)cc(C3CN([C@H](CCCN4CCN(C5CC5)CC4)C(C)C)C3)cn12` [Example 350], the pIC50 was 8.48 in experiment [1] (setting [3]) and 4.92 in experiment [2]. Take `CCN(C(=O)c1cc(F)ccc1-c1cc(C2CN([C@H](CCCN3CCN(C(C)=O)CC3)C(C)C)C2)cn2c(C)ncc12)C(C)C` [Example 311-2, 2-(6-{1-[(3R)-6-(4-acetylpiperazin-1-yl)-2-methylhexan-3-yl]azacyclobutan-3-yl}-3-methylimidazo[1,5-a]pyridin-8-yl)-N-ethyl-5-fluoro-N-(isopropyl)benzamide]: the pIC50 in experiment [1] (setting [3]) is 8.07.

Turning to `CCS(=O)(=O)N[C@H]1CC[C@H](CN2CC(c3cc(-c4ccc(F)cc4C(=O)N(CC(F)F)C(C)C)c4cnc(C)n4c3)C2)CC1` [Example 138], the pIC50 was 8.22 in experiment [1] (setting [3]) and 4.70 in experiment [2]. Consider `Cc1nc(F)c2c(-c3ccc(F)cc3C(=O)N3CCOC[C@H]3C)cc(C3CN([C@H](CO[C@H]4CCCN(C)C4)C(C)C)C3)cn12` [Example 321-2, (3R)-4-[5-fluoro-2-(1-fluoro-3-methyl-6-{1-[(2S)-3-methyl-1-{[(3S)-1-methylpiperidin-3-yl]oxy}butan-2-yl]azacyclobutan-3-yl}imidazo[1,5-a]pyridin-8yl)benzoyl]-3-methylmorpholine], for which the pIC50 in experiment [1] (setting [3]) is 8.42. On the same count and under the same terms, to `CCN(C(=O)c1cc(F)ccc1-c1cc(C2CN([C@@H](C)C3CCN(C(=O)CO)CC3)C2)cn2c(C)nc(F)c12)C(C)C` [Example 284-2] belongs 8.70. Same read-out and setting: to `CC[C@@H](C1CCN(C(C)=O)CC1)N1CC(c2cc(-c3ccc(F)cc3C(=O)N3CCOC[C@H]3C)c3c(F)nc(C)n3c2)C1` [Example 280-1, 1-{4-[(1S)-1-[3-(1-fluoro-8-{4-fluoro-2-[(3R)-3-methylmorpholin-4-carbonyl]phenyl}-3-methylimidazo[1,5-a]pyridin-6-yl)azacyclobutan-1-yl]propyl]piperidin-1-yl}ethan-1-one] belongs 7.82. Consider `CCN(C(=O)c1cc(F)ccc1-c1cc(C2CN([C@H](CCCN3C[C@H]4C[C@@H]3CO4)C(C)C)C2)cn2c(C)ncc12)C(C)C` [Example 379, N-ethyl-5-fluoro-2-(3-methyl-6-{1-[(3R)-2-methyl-6-[(1R,4R)-2-oxa-5-azabicyclo[2.2.1]heptan-5-yl]hexan-3-yl]azacyclobutan-3-yl}imidazo[1,5-a]pyridin-8-yl)-N-(isopropyl)benzamide], for which the pIC50 was 8.74 in experiment [1] (setting [3]) and 4.94 in experiment [2]. As for `CC(=O)N1CCC([C@H](C)N2CC(c3cc(-c4ccc(F)cc4C(=O)N4CCOC[C@H]4C)c4c(F)nc(C)n4c3)C2)CC1` [Example 257-2, 1-{4-[(1S)-1-[3-(1-fluoro-8-{4-fluoro-2-[(3R)-3-methylmorpholin-4-carbonyl]phenyl}-3-methylimidazo[1,5-a]pyridin-6-yl)azacyclobutan-1-yl]ethyl]piperidin-1-yl}ethan-1-one], the values for the negative logarithm of the IC50 (pIC50) in experiment [1] (setting [3]) and in experiment [2] were 7.86 and 4.70, respectively. `Cc1nc(F)c2c(-c3ccc(F)cc3C(=O)N3CCOC[C@H]3C)cc(C3CN([C@H](CO[C@@H]4CCCN(C)C4)C(C)C)C3)cn12` [Example 297-1, (3R)-4-[5-fluoro-2-(1-fluoro-3-methyl-6-{1-[(2S)-3-methyl-1-{[(3R)-1-methylpiperidin-3-yl]oxy}butan-2-yl]azacyclobutan-3-yl}imidazo[1,5-a]pyridin-8yl)benzoyl]-3-methylmorpholine]: the pIC50 in experiment [1] (setting [3]) was 7.97.

As for `CCN(C(=O)c1cc(F)ccc1-c1cc(C2CN([C@H](CN3CCN(CCO)CC3)C(C)C)C2)cn2c(C)ncc12)C(C)C` [Example 431, N-ethyl-5-fluoro-2-(6-{1-[(2S)-1-[4-(2-hydroxylethyl)piperazin-1-yl]-3-methylbutan-2-yl]azacyclobutan-3-yl}-3methylimidazo[1,5-a]pyridin-8-yl)-N-(isopropyl)benzamide], in experiment [1] (setting [3]), the pIC50 is 8.41.

Turning to `CCN(C(=O)c1cc(F)ccc1-c1cc(C2CN(C[C@H]3CC[C@H](NS(=O)(=O)CC)CC3)C2)cn2c(C)nc(F)c12)C(C)C` [Example 137], in experiment [1] (setting [3]), the pIC50 is 8.19. For the molecule `CCN1CCN(CCC[C@H](C(C)C)N2CC(c3cc(-c4ccc(F)cc4C(=O)N4CCOC[C@H]4C)c4cnc(C)n4c3)C2)CC1` [Example 324-2], the pIC50 in experiment [1] (setting [3]) is 8.60. `Cc1ncc2c(-c3ccc(F)cc3C(=O)N3CCOC[C@H]3C)cc(C3CN([C@H](CCCN4CCN(C)CC4)C(C)C)C3)cn12` [Example 323-2, (3R)-4-[5-fluoro-2-(3-methyl-6-{1-[(3R)-2-methyl-6-(4-methylpiperazin-1-yl)hexan-3-yl]azacyclobutan-3-yl}imidazo[1,5-a]pyridin-8-yl)benzoyl]-3-methylmorpholine]: in experiment [1] (setting [3]), the negative logarithm of the IC50 (pIC50) was 8.57. Same read-out and setting: to `CCN(C(=O)c1cc(F)ccc1-c1cc(C2CN([C@H](CCCN3CCN(C)CC3)C(C)C)C2)cn2c(C)ncc12)C(C)C` [Example 310-2, N-ethyl-5-fluoro-2-(3-methyl-6-{1-[(3R)-2-methyl-6-(4-methylpiperazin-1-yl)hexan-3-yl]azacyclobutan-3-yl}imidazo[1,5-a]pyridin-8-yl)-N-(isopropyl)benzamide] belongs 8.44; to `Cc1nc(F)c2c(-c3ccc(F)cc3C(=O)N3CCOC[C@H]3C)cc(C3CN([C@H](CCCN4CCC(F)CC4)C(C)C)C3)cn12` [Example 314], 8.60. The same measure, in the same setting: the result for `CCN(C(=O)c1cc(F)ccc1-c1cc(C2CN([C@H](CCCN3C4COCC3C4)C(C)C)C2)cn2c(C)ncc12)C(C)C` [Example 423] reads 8.77; that for `CCN(C(=O)c1cc(F)ccc1-c1cc(C2CN([C@H](CCCN3CCN(C)CC3)C(C)C)C2)cn2c(C)nc(F)c12)C(C)C` [Example 312-2], 8.55.

The values are drawn from patent publication EP4782453A1 (Beyang Therapeutics Co., Ltd., priority 2023, dated 2025).
